The test system of this assay is protein carbonyl. The assay can be described thus: Measurement of protein carbonyl in gastric tissue homogenate. Particulars: 50 mg/kg bw, ulcerated mice. Format: in vivo. Here is the method: Protein carbonyl groups are considered as biomarkers of oxidative stress. Protein oxidation was measured as carbonyl content in the low speed supernatant of the gastric tissue homogenate. The stomach from control, stress ulcerated, and compound 5 treated (50 mg/kg bw) mice were homogenized in 50 mM sodium phosphate buffer pH 7.4 in a Potter-Elvehjem glass homogenizer for 2 min to get 20% homogenate. After centrifugation at 600 g for 10 min, the proteins from 1.0 mL of the supernatant were precipitated with 10% trichloroacetic acid and allowed to react with 0.5 mL of 10 mM 2,4-dinitrophenyl hydrazine for 1 h. After precipitation with 20% trichloroacetic acid, proteins were washed thrice with a mixture of ethanol-ethyl acetate (1:1), dissolved in 1.0 mL of a solution containing 6 M guanidine HCl in 20 mM potassium phosphate adjusted to pH 2.3 with trifluroacetic acid, and centrifuged. The absorbance of the supernatant was read at 362 nm for carbonyl content (E=22,000/M/cm).
The fundic stomach homogenate was used for measurement of protein carbonyl formation as nmol/mg protein.

Experimental findings from patent publication US10590116B2, “3-indolyl furanoids as inhibitors of matrix metalloproteinase-9 for prevention of gastric ulcer and other inflammatory diseases” (Council of Scientific & Industrial Research, priority 2017, dated 2020) are described below.

Molecules are shown by their SMILES.

In the case of `COc1cccc2[nH]cc(-c3cc(-c4ccccc4)oc3-c3ccccc3)c12` [compound 5, 4-methoxy-3-(2,5-diphenylfuran-3-yl)-1H-indole], the Protein carbonylation was found to be 1.58±0.18 nmol/mg protein. The Protein carbonylation (listed as Compound 5) stood at 1.58 ± 0.18 nmol/mg protein.
